In paper PMC8234462, “Novel Cyclophilin Inhibitor Decreases Cell Proliferation and Tumor Growth in Models of Hepatocellular Carcinoma” (Cancers, 2021):
pIC50: −log10 of the molar value.

Key:
PHA-stimulated PBMCs = assay: Cytotoxicity, CellTiter Glo; format: cell-based; details: Homo sapiens, PBMC, 72 h, 3 days of treatment, read-out: IC50 (50% reduction in cell viability)
Protocol: (§1) The evaluation of the off-target effects of NV651 was performed by ImQuest BioSciences Inc. (Frederick, MD, USA) by analyzing the cytotoxicity in a panel of primary cells. NV651 was evaluated at a concentration of 30 µM and five serial half-logarithmic dilutions in triplicate. The positive control compounds for each cell type were purchased from Sigma-Aldrich (St. Louis, MO, USA) and were as follows:
(§2) Human unstimulated or PHA-P-stimulated PBMCs were isolated by Ficoll hypaque centrifugation from whole blood and resuspended in a fresh tissue culture medium containing IL-2. Cells were seeded at a concentration of 5 × 10^5 /mL in a 96-well plate followed by NV651 treatment in triplicate for 3 days. Cell viability was measured with CellTiter Glo (Promega, Madison, WI, USA).
(§3) CellTiter Glo was performed to evaluate cell viability. CellTiter Glo Luminescent Cell Viability Assay (Promega, Madison, WI, USA) was performed according to the manufacturer’s instructions.

Unstimulated PBMCs = assay: Cytotoxicity, CellTiter Glo; format: cell-based; details: Homo sapiens, PBMC, 72 h, 3 days of treatment, read-out: IC50 (50% reduction in cell viability)
Protocol: as §1, §2, §3

Hepatocytes = assay: Cytotoxicity, CellTiter Glo; format: cell-based; details: Homo sapiens, Hepatocyte, 48 h, 2 days of treatment, read-out: IC50 (50% reduction in cell viability)
Protocol: as §1, §3

Monocytes/Macrophages = assay: Cytotoxicity, CellTiter Glo; format: cell-based; details: Homo sapiens, 168 h, 7 days of treatment, read-out: IC50 (50% reduction in cell viability)
Protocol: as §1, §3

iPS neurons = assay: Cytotoxicity, CellTiter Glo; format: cell-based; details: Homo sapiens, Neuron, 72 h, 3 days of treatment, read-out: IC50 (50% reduction in cell viability)
Protocol: as §1, §3

RPTECs = assay: Cytotoxicity, CellTiter Glo; format: cell-based, human; details: Homo sapiens, RPTEC, 72 h, 3 days of treatment, read-out: IC50 (50% reduction in cell viability)
Protocol: The evaluation of the off-target effects of NV651 was performed by ImQuest BioSciences Inc. (Frederick, MD, USA) by analyzing the cytotoxicity in a panel of primary cells. NV651 was evaluated at a concentration of 30 µM and five serial half-logarithmic dilutions in triplicate. The positive control compounds for each cell type were purchased from Sigma-Aldrich (St. Louis, MO, USA) and were as follows: Unstimulated human peripheral blood mononuclear cells (PBMCs), phytohemagglutinin (PHA)-stimulated PBMCs, monocytes/macrophages, dendritic cells, hepatocytes, induced pluripotent stem cell (iPS) neurons: […] AZT, kidney cells (RPTEC): cisplatin and iPS cardiomyocytes: Doxazosin. Human primary renal proximal tubule cells (hRPTEC, Lonza, Basel, Switzerland) were cultured at 1 × 10^4 cells/well in supplemented REGM medium (Lonza, Basel, Switzerland). Following overnight incubation for adherence, cells were treated with NV651 in triplicate. After a 3-day treatment, CellTiter Glo (Promega, Madison, WI, USA) was used. CellTiter Glo was performed to evaluate cell viability. CellTiter Glo Luminescent Cell Viability Assay (Promega, Madison, WI, USA) was performed according to the manufacturer’s instructions.

HEPG2 [1] = assay: Clonogenic assay; format: cell-based, human; details: continuously treated 14 days, crystal violet
Protocol: (§4) Cells were seeded at 2500/mL and, starting 24 h later, provided with fresh medium and NV651 every day for the following 14 days. Then, colonies were stained with crystal violet, which was subsequently dissolved in 10% acetic acid and quantified by a spectrophotometer by absorbance at 595 nm.

Hep3B = assay: Clonogenic assay; format: cell-based, human; details: continuously treated 14 days, crystal violet
Protocol: as §4

Huh-7D12 = assay: Clonogenic assay; format: cell-based, human; details: continuously treated 14 days, crystal violet
Protocol: as §4

PLC/PRF/5 = assay: Clonogenic assay; format: cell-based, human; details: continuously treated 14 days, crystal violet
Protocol: as §4

HEPG2 [2] = assay: Mitochondrial membrane potential (DiOC(6)3) and PI fluorocytometry; format: cell-based, human; details: 72 h, 20, 50 or 100 nM
Protocol: (§5) HEPG2 and HUH7 cells were seeded at 1.5 × 10^5 cells/well and 1 × 10^5 cells/well, respectively, 24 h prior to treatment. After 72 h of treatment (0, 20, 50 or 100 nM of NV651), supernatant and trypsinized cells were collected and stained with propidium iodide (PI) (Thermo Fisher Scientific, Waltham, MA, USA) at a concentration of 1 μg/mL to evaluate the plasma membrane integrity; due to the lack of cell permeability, only dead cells are able to incorporate it. In addition, changes in the mitochondrial membrane potential were evaluated by 3,3′-dihexyloxacarbocyanine iodide (DiOC(6)3)(Molecular Probes–Invitrogen, Waltham, MA, USA) staining at a concentration of 40 nM.
(§6) Data was acquired with FACSverse Instrument and analyzed with FCS Express 6 Flow Research.

HUH7 [3] = assay: as above; format: cell-based, human; details: 72 h, 20, 50 or 100 nM
Protocol: as §5, §6

HEPG2 [4] = assay: Phospho-Histone 3 (PH3) staining; format: cell-based, human; details: 10 or 100 nM, 24 h
Protocol: (§7) For the quantification of mitotic cells, HEPG2 cells were seeded in a 6-well plate at a concentration of 1.5 × 10^5 cells/well and HUH7 at 1 × 10^5 cells/well in a 6-well plate. Both cells lines were treated with 10 or 100 nM of NV651 or the equivalent volume of DMSO. Samples were fixed for HEPG2 at 24 h and for HUH7 at 48 h of treatment, as described above. Permeabilization was performed by adding 0.25% Tween20 (Sigma-Aldrich, Cat# P1379-500ML, St. Louis, MO, USA) diluted in PBS. Samples were stained with primary antibody mouse anti-PH3 (Merck Millipore, Cat# 05-806, Burlington, MA, USA) at a dilution of 1/100 overnight at 4 °C and with the secondary antibody goat anti-Mouse IgG AF488 conjugated (Life technologies, Cat# A11029, Carlsbad, CA, USA) for 1 h at room temperature. After washing, 1-µg/mL DAPI was added for the staining of the DNA content.
as §6

HUH7 [5] = assay: Phospho-Histone 3 (PH3) staining; format: cell-based, human; details: 10 or 100 nM, 48 h
Protocol: as §7, §6

[6] = parameters: method as in PMID 31717385; details: cited from earlier work

CC(=O)CCC1C(=O)NC(C(C)C)C(=O)NC(Cc2cc(O)cc(F)c2)C(=O)N2CCCC(N2)C(=O)OC(C(C)=CC=CC(=O)OC(C)(C)C)CC=CC=CC(O)C(C)C1O (stereo not drawn) [NV651]
pIC50 (PHA-stimulated PBMCs): < 4.52 | pIC50 (Unstimulated PBMCs): < 4.52 | pIC50 (Hepatocytes): < 4.52 | pIC50 (Monocytes/Macrophages): 4.61 | pIC50 (iPS neurons): < 4.52 | pIC50 (RPTECs): 4.68 | number of colonies (HEPG2 [1]): reduced the number of colonies | number of colonies (Hep3B): reduced the number of colonies | number of colonies (Huh-7D12): reduced the number of colonies | number of colonies (PLC/PRF/5): reduced the number of colonies | changes in mitochondrial membrane potential (DiOC6(3)) and plasma membrane integrity (PI) (HEPG2 [2]): did not show any significant differences | changes in mitochondrial membrane potential (DiOC6(3)) and plasma membrane integrity (PI) (HUH7 [3]): did not show any significant differences | fraction of cells positive for the phosphorylation of histone 3 (PH3) (HEPG2 [4]): increased | fraction of cells positive for the phosphorylation of histone 3 (PH3) (HUH7 [5]): increased | immunosuppressant activity [6]: no immunosuppressant activity
